Consider 19 compounds from PubChem BioAssay AID296 (DTP/NCI, 2004).

For this assay, the system named is MX-1 breast xenograft, nude mice, tumor weight T/C. The assay is described as follows: NCI In Vivo Anticancer Drug Screen. Data for tumor model Human Mammary Carcinoma MX-1 Xenograft (intrarenal inoculation) in NU/NU Swiss (nude) mice. The note with it: endpoint: mean tumor weight change, higher = larger tumour. The gist of the method: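 Tumor-bearing mice were treated with test compound alongside a vehicle-treated control group. Survival or tumor size was measured, and activity is expressed as the treated-group value divided by the control-group value.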
(A xenograft is tissue or cells of one species grown in another, often human tumour cells in immunodeficient mice.)

[1] abbreviates: dose: 300.0 mg/kg/injection, schedule: Q04DX003 (sc), vehicle: Klucel (hydroxypropylcellulose) (HPC).
The mark [2] stands for this setting: dose: 600.0 mg/kg/injection, schedule: Q04DX003 (sc), vehicle: Klucel (hydroxypropylcellulose) (HPC).
Where [3] appears, read: dose: 1200.0 mg/kg/injection, schedule: Q04DX003 (sc), vehicle: Klucel (hydroxypropylcellulose) (HPC).
Where [4] appears, read: dose: 2400.0 mg/kg/injection, schedule: Q04DX003 (sc), vehicle: Klucel (hydroxypropylcellulose) (HPC).
[5] abbreviates: dose: 300.0 mg/kg/injection, schedule: Q04DX003 (sc), vehicle: saline.
Where [6] appears, read: dose: 300.0 mg/kg/injection, schedule: Q04DX003 (sc), vehicle: saline with Tween-80.
[7] abbreviates: dose: 600.0 mg/kg/injection, schedule: Q04DX003 (sc), vehicle: saline with Tween-80.
Where [8] appears, read: dose: 300.0 mg/kg/injection, schedule: Q04DX003 (sc), vehicle: suspension in saline.
The mark [9] stands for this setting: dose: 600.0 mg/kg/injection, schedule: Q04DX003 (sc), vehicle: suspension in saline.
[10] abbreviates: dose: 200.0 mg/kg/injection, schedule: Q04DX003 (sc), vehicle: saline with Tween-80.
The mark [11] stands for this setting: dose: 400.0 mg/kg/injection, schedule: Q04DX003 (sc), vehicle: saline with Tween-80.

“And” between values parts separate entries of the source, which are not always exact repeats. Equal values may be shown once. Inconclusive results are not listed.

For the compound `Cc1cc(Nc2ccc3c(c2)OCO3)c2cc3c(cc2n1)OCO3`, the T/C is, setting by setting: under setting [1], 61 % of control; under setting [2], 81 % of control; under setting [3], 81 % of control; under setting [4], 92 % of control.

Regarding `Cc1ncc([N+](=O)[O-])n1CCSC(N)=O`, the T/C by setting is: (dose: 50.0 mg/kg/injection, schedule: Q01DX010 (sc), vehicle: saline with Tween-80) 103 % of control; (dose: 100.0 mg/kg/injection, schedule: Q01DX010 (sc), vehicle: saline with Tween-80) 15 % of control; (dose: 200.0 mg/kg/injection, schedule: Q01DX009 (sc), vehicle: saline with Tween-80) 17 % of control; (dose: 400.0 mg/kg/injection, schedule: Q01DX009 (sc), vehicle: saline with Tween-80) 42 % of control; (dose: 400.0 mg/kg/injection, schedule: Q01DX010 (sc), vehicle: saline with Tween-80) 77 % of control and 83 % of control and 86 % of control; (dose: 800.0 mg/kg/injection, schedule: Q01DX009 (sc), vehicle: saline with Tween-80) 5 % of control.

In the case of `COc1c(O)c2c(c3cc(C(=O)N4CCc5c4c(O)c(OC)c4[nH]c(C(=O)N6CC7CC78C6=CC(=O)c6[nH]cc(C)c68)cc54)[nH]c13)CCN2C(N)=O` (stereo not given), the T/C reads like this: (dose: 2.5 mg/kg/injection, schedule: Q01DX010 (sc), vehicle: DMSO) 37 % of control; (dose: 5.0 mg/kg/injection, schedule: Q01DX010 (sc), vehicle: DMSO) 82 % of control; (dose: 10.0 mg/kg/injection, schedule: Q01DX010 (sc), vehicle: DMSO) 1 % of control; (dose: 6.25 micrograms/kg/injection, schedule: Q01DX010 (sc), vehicle: DMSO) 63 % of control; (dose: 12.5 micrograms/kg/injection, schedule: Q01DX010 (sc), vehicle: DMSO) 53 % of control; (dose: 25.0 micrograms/kg/injection, schedule: Q01DX010 (sc), vehicle: DMSO) 68 % of control. Further, the T/C (dose: 50.0 micrograms/kg/injection, schedule: Q01DX010 (sc), vehicle: DMSO) was 90 % of control; the T/C (dose: 100.0 micrograms/kg/injection, schedule: Q01DX010 (sc), vehicle: DMSO) is 85 % of control; the T/C (dose: 400.0 micrograms/kg/injection, schedule: Q01DX010 (sc), vehicle: DMSO) is 117 % of control.

As to `C[CH2][Sn]([CH2]C)([O]S(C)(=O)=O)[O]S(C)(=O)=O`, the T/C by setting is: (dose: 6.25 mg/kg/injection, schedule: Q04DX003 (sc), vehicle: saline with Tween-80) 83 % of control; (dose: 12.5 mg/kg/injection, schedule: Q04DX003 (sc), vehicle: saline with Tween-80) 95 % of control; (dose: 25.0 mg/kg/injection, schedule: Q04DX003 (sc), vehicle: saline with Tween-80) 95 % of control.

Take `NC(=S)c1cn(C2OC(CO)C(O)C2O)c2ncnc(N)c12` (stereo not given): the T/C (dose: 6.25 mg/kg/injection, schedule: Q04DX003 (sc), vehicle: suspension in saline) is 50 % of control and the T/C (dose: 12.5 mg/kg/injection, schedule: Q04DX003 (sc), vehicle: suspension in saline) was 9 % of control.

As for `NC(CCC(=O)NC(CS)C(=O)NCC(=O)O)C(=O)O` (stereo not given), the T/C was 87 % of control under setting [5]; 93 % of control (dose: 600.0 mg/kg/injection, schedule: Q04DX003 (sc), vehicle: saline); 104 % of control (dose: 1200.0 mg/kg/injection, schedule: Q04DX003 (sc), vehicle: saline); 89 % of control (dose: 2400.0 mg/kg/injection, schedule: Q04DX003 (sc), vehicle: saline).

With `C/C(=N\N=C(/[Se])N1CC2CCC(CC2)C1)c1ccccn1`, the T/C was 106 % of control (dose: 25.0 mg/kg/injection, schedule: Q04DX003 (sc), vehicle: Klucel (hydroxypropylcellulose) (HPC)) and 110 % of control (dose: 50.0 mg/kg/injection, schedule: Q04DX003 (sc), vehicle: Klucel (hydroxypropylcellulose) (HPC)).

For the compound `FC(F)(F)c1nc2nc(Cl)c(Cl)nc2[nH]1`, the T/C is 92 % of control (dose: 75.0 mg/kg/injection, schedule: Q04DX003 (sc), vehicle: saline with Tween-80); 97 % of control (dose: 150.0 mg/kg/injection, schedule: Q04DX003 (sc), vehicle: saline with Tween-80); 90 % of control under setting [6].

As to `CCC(=O)Sc1ccccc1C(=O)Nc1ccc(Cl)cc1`, the T/C is, setting by setting: under setting [6], 63 % of control; under setting [7], 75 % of control; (dose: 1200.0 mg/kg/injection, schedule: Q04DX003 (sc), vehicle: saline with Tween-80) 58 % of control; (dose: 2400.0 mg/kg/injection, schedule: Q04DX003 (sc), vehicle: saline with Tween-80) 69 % of control.

With `C=C(NC(=O)C(=C)NC(=O)c1csc(C2=NC3c4csc(n4)C4NC(=O)c5csc(n5)C(C(C)(O)C(C)O)NC(=O)C5CSC(=N5)/C(=C/C)NC(=O)C(C(C)O)NC(=O)c5csc(n5)C3(CC2)NC(=O)C(C)NC(=O)C(=C)NC(=O)C(C)NC(=O)C(C(C)CC)NC2C=Cc3c(C(C)O)cc(nc3C2O)C(=O)OC4C)n1)C(N)=O` (stereo not given), the T/C was 73 % of control (dose: 400.0 mg/kg/injection, schedule: Q01DX010 (sc), vehicle: Klucel (hydroxypropylcellulose) (HPC)); 98 % of control (dose: 800.0 mg/kg/injection, schedule: Q01DX010 (sc), vehicle: Klucel (hydroxypropylcellulose) (HPC)); 81 % of control (dose: 1600.0 mg/kg/injection, schedule: Q01DX010 (sc), vehicle: Klucel (hydroxypropylcellulose) (HPC)); 117 % of control (dose: 3200.0 mg/kg/injection, schedule: Q01DX010 (sc), vehicle: Klucel (hydroxypropylcellulose) (HPC)).

In the case of `O=C1NC(O)c2ccccc2O1` (stereo not given), the T/C reads like this: under setting [8], 25 % of control; under setting [9], 30 % of control; (dose: 1200.0 mg/kg/injection, schedule: Q04DX003 (sc), vehicle: suspension in saline) 26 % of control; (dose: 2400.0 mg/kg/injection, schedule: Q04DX003 (sc), vehicle: suspension in saline) 29 % of control.

For `CN(C1=NS(=O)(=O)N=C(N(C)c2ccccc2)O1)c1ccccc1`, the T/C is, setting by setting: under setting [1], 102 % of control; under setting [2], 110 % of control; under setting [3], 113 % of control; under setting [4], 106 % of control.

Consider `CN=S(=O)(OCCCCCOS(=O)(=NC)c1ccccc1)c1ccccc1` (stereo not given), for which the T/C under setting [7] is 76 % of control.

Turning to `C=C(Cl)C(=NC(C)(C)C)Nc1ccccc1C`, for the setting “dose: 75.0 mg/kg/injection, schedule: Q04DX003 (sc), vehicle: Klucel (hydroxypropylcellulose) (HPC)”, the T/C is 96 % of control.

`CCCCOCN(COCCCC)C(C)Cc1ccccc1` (stereo not given): the T/C under setting [10] was 70 % of control; the T/C under setting [11] is 52 % of control; the T/C (dose: 800.0 mg/kg/injection, schedule: Q04DX003 (sc), vehicle: saline with Tween-80) was 66 % of control.

Consider `C=C1C(=O)OC2CC(C)C3C4OC4C(O)C3(C)C(O)C12` (stereo not given), for which the T/C by setting is: (dose: 100.0 mg/kg/injection, schedule: Q04DX003 (sc), vehicle: saline with Tween-80) 113 % of control; under setting [10], 116 % of control; under setting [11], 101 % of control.

On to `NCCc1ccc(O)c(O)c1`, for which the T/C is 77 % of control (dose: 100.0 mg/kg/injection, schedule: Q01DX010 (sc), vehicle: saline); 62 % of control (dose: 200.0 mg/kg/injection, schedule: Q01DX010 (sc), vehicle: saline); 80 % of control (dose: 400.0 mg/kg/injection, schedule: Q01DX010 (sc), vehicle: saline); 61 % of control (dose: 800.0 mg/kg/injection, schedule: Q01DX010 (sc), vehicle: saline).

For the compound `O=C(NP(=O)(N1CC1)N1CC1)c1cc(I)ccc1I`, the T/C is, setting by setting: (dose: 37.5 mg/kg/injection, schedule: Q04DX003 (sc), vehicle: saline) 23 % of control; (dose: 75.0 mg/kg/injection, schedule: Q04DX003 (sc), vehicle: suspension in saline) -60 % of control; (dose: 150.0 mg/kg/injection, schedule: Q04DX003 (sc), vehicle: saline) -9 % of control; (dose: 150.0 mg/kg/injection, schedule: Q04DX003 (sc), vehicle: suspension in saline) 11 % of control; under setting [5], -100 % of control; under setting [8], -27 % of control. For the same compound, the T/C under setting [9] is 2 % of control.

With `NC(=O)/C=C/c1c[nH]c2nccnc12`, the T/C is 98 % of control (dose: 25.0 mg/kg/injection, schedule: Q04DX003 (sc), vehicle: water) and 46 % of control (dose: 50.0 mg/kg/injection, schedule: Q04DX003 (sc), vehicle: water).
